Like-named read-outs stand apart in the source and are kept apart here.
System: P. falciparum K1
Assay: Blood-stage antiplasmodial evaluation (SYBR Green I fluorescence, 72 h)
Type: cell-based, Plasmodium falciparum
Conditions: for EC50: read-out: P. falciparum K1 EC50; for IC50: erythrocytic stage P. falciparum K1, read-out: IC50 (activity on Pf. K1)
Protocol: A K1 culture-adapted P. falciparum strain resistant to chloroquine, pyrimethamine, and proguanil was used in an in vitro culture. It was maintained in a continuous culture, as described previously by Trager and Jensen. Cultures were maintained in fresh A+ human erythrocytes at 2.5% hematocrit in a complete medium (RPMI 1640 with 25 mM HEPES, 25 mM NaHCO3, and 10% of A+ human serum) at 37 °C under a reduced O2 atmosphere (gas mixture: 10% O2, 5% CO2, and 85% N2). Parasitemia was maintained daily between 1 and 3%. The P. falciparum drug susceptibility test was carried out by comparing quantities of DNA in treated and control cultures of parasite in human erythrocytes, according to a SYBR Green I fluorescence-based method using a 96-well fluorescence plate reader. Compounds, previously dissolved in DMSO (final concentration less than 0.5% v/v), were incubated in a total assay volume of 200 μL (RPMI, 2% hematocrit and 0.4% parasitemia) for 72 h in a humidified atmosphere (10% O2 and 5% CO2) at 37 °C, in 96-well flat bottom plates. Duplicate assays were performed for each sample. After incubation, plates were frozen at […] for 24 h. Then, the frozen plates were thawed for 1 h at 37 °C. A total of 15 μL of each sample was transferred to 96-well flat-bottom non-sterile black plates (Greiner Bio-One, Kremsmünster, Austria) already containing 15 μL of the SYBR Green I lysis buffer (2X SYBR Green I, 20 mM Tris base pH 7.5, 20 mM EDTA, 0.008% w/v saponin, 0.08% w/v Triton X-100). Negative control treated by solvents (DMSO or H2O) and positive controls (chloroquine) were added to each set of experiments. Plates were incubated for 15 min at 37 °C and then read on a TECAN Infinite F-200 spectrophotometer with excitation and emission wavelengths at 485 and 535 nm, respectively. The concentrations of compounds required to induce a 50% decrease in parasite growth (EC50 K1) were calculated from three independent experiments.

[1] = Plasmodium falciparum, K1, 72 h
[2] = Plasmodium falciparum, K1, 72 h, asexual blood stages, drug-resistant K1 strain, 72 h incubation, mean ± SD of three independent experiments
[3] = asexual blood stages, drug-resistant K1 strain, 72 h incubation, mean ± SD of three independent experiments

Row | Compound | EC50 [2] | also measured
1 | CCN(CC)CCCC(C)Nc1ccnc2cc(Cl)ccc12 (stereo not shown) [Chloroquine, reference compound] | – | EC50 [1]: 0.8 ± 0.1 µM
2 | COc1nc(NC(C)(C)C)nc2cc(-c3ccc(C)cc3)sc12 [Compound 7a, N-(tert-butyl)-4-methoxy-6-(p-tolyl)thieno[3,2-d]pyrimidin-2-amine] | 7.6 ± 0.9 µM | –
3 | CCOc1nc(NC(C)(C)C)nc2cc(-c3ccc(C)cc3)sc12 [Compound 7b, N-(tert-butyl)-4-ethoxy-6-(p-tolyl)thieno[3,2-d]pyrimidin-2-amine] | 5.1 ± 1.3 µM | –
4 | Cc1ccc(-c2cc3nc(NC(C)(C)C)nc(Oc4ccccc4)c3s2)cc1 [Compound 8a, N-(tert-butyl)-4-phenoxy-6-(p-tolyl)thieno[3,2-d]pyrimidin-2-amine] | > 10 µM | –
5 | Cc1ccc(Oc2nc(NC(C)(C)C)nc3cc(-c4ccc(C)cc4)sc23)cc1 [Compound 8b, N-(tert-butyl)-6-(p-tolyl)-4-(p-tolyloxy)thieno[3,2-d]pyrimidin-2-amine] | > 10 µM | –
6 | Cc1ccc(-c2cc3nc(NC(C)(C)C)nc(Sc4ccccc4)c3s2)cc1 [Compound 9a, N-(tert-butyl)-6-(p-tolyl)-4-(phenylthio)thieno[3,2-d]pyrimidin-2-amine] | 13.8 ± 1.7 µM | –
7 | Cc1ccc(Sc2nc(NC(C)(C)C)nc3cc(-c4ccc(C)cc4)sc23)cc1 [Compound 9b, N-(tert-butyl)-6-(p-tolyl)-4-(p-tolylthio)thieno[3,2-d]pyrimidin-2-amine] | 16.4 ± 1.9 µM | –
8 | Cc1ccc(-c2cc3nc(NC(C)(C)C)nc(NC(C)C)c3s2)cc1 [Compound 10e, N^2-(tert-butyl)-N^4-isopropyl-6-(p-tolyl)thieno[3,2-d]pyrimidine-2,4-diamine] | 2.4 ± 1 µM | IC50 (Plasmodium falciparum): ~2 µM
9 | Cc1ccc(-c2cc3nc(NC(C)(C)C)nc(Nc4ccccc4)c3s2)cc1 [Compound 10h, N^2-(tert-butyl)-N^4-phenyl-6-(p-tolyl)thieno[3,2-d]pyrimidine-2,4-diamine] | 2 ± 0.4 µM | P. falciparum K1 EC50 [3]: some activity was maintained
10 | Cc1ccc(-c2cc3nc(NC(C)(C)C)nc(NN)c3s2)cc1 [Compound 10i, N-(tert-butyl)-4-hydrazino-6-(p-tolyl)thieno[3,2-d]pyrimidin-2-amine] | 2.2 ± 0.3 µM | IC50 (Plasmodium falciparum): ~2 µM
11 | Cc1ccc(-c2cc3nc(NC(C)(C)C)nc(N[C@@H](C)C(=O)[O-])c3s2)cc1.O.O.O.[Na+] [Compound 10j, Sodium (S)-2-((2-(Tert-butylamino)-6-(p-tolyl)thieno[3,2-d]pyrimidin-4-yl)amino)-propanoate trihydrate] | – | EC50 [1]: > 12.5 µM; P. falciparum K1 EC50 [3]: loss of activity
12 | Cc1ccc(-c2cc3nc(NC(C)(C)C)nc(-c4ccc(C)cc4)c3s2)cc1 [Compound 11a, N-(tert-butyl)-4,6-di-p-tolylthieno[3,2-d]pyrimidin-2-amine] | > 31 µM | –
13 | Cc1ccc(-c2cc3nc(NC(C)(C)C)nc(-c4cccc(C)c4)c3s2)cc1 [Compound 11b, N-(tert-butyl)-4-(m-tolyl)-6-(p-tolyl)thieno[3,2-d]pyrimidin-2-amine] | > 31 µM | –
14 | Cc1ccc(-c2cc3nc(NC(C)(C)C)nc(-c4ccccc4)c3s2)cc1 [Compound 11c, N-(tert-butyl)-4-phenyl-6-(p-tolyl)thieno[3,2-d]pyrimidin-2-amine] | > 25 µM | –
15 | Cc1ccc(-c2cc3nc(NC(C)(C)C)nc(-c4ccsc4)c3s2)cc1 [Compound 11d, N-(tert-butyl)-4-(thiophen-3-yl)-6-(p-tolyl)thieno[3,2-d]pyrimidin-2-amine] | > 25 µM | –
16 | Cc1ccc(-c2cc3nc(NC(C)(C)C)nc(-c4ccncc4)c3s2)cc1 [Compound 11e, N-(tert-butyl)-4-(pyridin-4-yl)-6-(p-tolyl)thieno[3,2-d]pyrimidin-2-amine] | 28.1 ± 7 µM | –
17 | Cc1ccc(-c2cc3nc(NC(C)(C)C)nc(-c4cccnc4)c3s2)cc1 [Compound 11f, N-(tert-butyl)-4-(pyridin-3-yl)-6-(p-tolyl)thieno[3,2-d]pyrimidin-2-amine] | > 10 µM | –
18 | Cc1ccc(-c2cc3nc(NC(C)(C)C)nc(C#Cc4ccccc4)c3s2)cc1 [Compound 12a, N-tert-butyl-6-(4-methylphenyl)-4-(phenylethynyl)thieno[3,2-d]pyrimidin-2-amine] | 20.1 ± 4.1 µM | –
19 | Cc1ccc(-c2cc3nc(NC(C)(C)C)nc(C#CC4CC4)c3s2)cc1 [Compound 12b, N-tert-butyl-4-(cyclopropylethynyl)-6-(4-methylphenyl)thieno[3,2-d]pyrimidin-2-amine] | 15.7 ± 2.4 µM | –
20 | Cc1ccc(-c2cc3nc(NC(C)(C)C)nc(C#CCCO)c3s2)cc1 [Compound 12c, 4-[2-tert-butylamino-6-(4-methylphenyl)thieno[3,2-d]pyrimidin-4-yl]but-3-yn-1-ol] | 14.2 ± 2.8 µM | –
21 | Cc1ccc(-c2cc3nc(NC(C)(C)C)ncc3s2)cc1 [Compound 13, N-(Tert-butyl)-6-(p-tolyl)thieno[3,2-d]pyrimidin-2-amine] | 26.1 ± 2.2 µM | P. falciparum K1 EC50 [3]: inactive
22 | N-(tert-butyl)-4-(1-methylhydrazinyl)-6-(p-tolyl)-3,4-dihydrothieno[3,2-d]pyrimidin-2-amine [Compound 10b] | – | EC50 [3]: 2.2 ± 0.3 µM; IC50: ~2 µM

Source: article PMC9323797, “4-Substituted Thieno[3,2-d]pyrimidines as Dual-Stage Antiplasmodial Derivatives” (Pharmaceuticals, 2022)
